Converted amounts (≈) assume the structure as drawn.
How the values were obtained:
[1] = test system: UO-31; assay: Cytotoxicity against human UO31 cells; type: functional
[2] = Cytotoxicity against human 786-O cells; type: functional
[3] = test system: SF-295; assay: Cytotoxicity against human SF295 cells; type: functional
[4] = test system: RPMI-8226; assay: Cytotoxicity against human RPMI8226 cells; type: functional
[5] = test system: MCF7; assay: Cytotoxicity against human MCF7 cells; type: functional
[6] = test system: MOLT-4; assay: Cytotoxicity against human MOLT4 cells; type: functional
[7] = test system: T47D; assay: Cytotoxicity against human T47D cells; type: functional
[8] = test system: HOP-62; assay: Cytotoxicity against human HOP62 cells; type: functional
[9] = test system: NCI-H522; assay: Cytotoxicity against human NCI-H522 cells; type: functional
[10] = test system: HL-60; assay: Cytotoxicity against human HL60 cells; type: functional
[11] = test system: A549; assay: Cytotoxicity against human A549 cells after 1 hr; type: functional, cell-based; conditions: A549, 1 h
[12] = test system: A549; assay: Cytotoxicity against human A549 cells after 1 hr compound washout; type: functional, cell-based; conditions: A549, 1 h
[13] = test system: MCF7; assay: Cytotoxicity against human doxorubicin-resistant MCF7 cells; type: functional
[14] = test system: RXF 393; assay: Cytotoxicity against human RXF393 cells; type: functional
[15] = test system: SR; assay: Cytotoxicity against human SR cells; type: functional
[16] = test system: MDA-MB-435; assay: Cytotoxicity against human MDA-MB-435 cells; type: functional
[17] = test system: SF-295; assay: Cytotoxicity against human SF295 cells after 1 hr; type: functional, cell-based; conditions: SF-295, 1 h
[18] = test system: M14; assay: Cytotoxicity against human M14 cells; type: functional
[19] = test system: SF-539; assay: Cytotoxicity against human SF539 cells; type: functional
[20] = test system: SK-MEL-2; assay: Cytotoxicity against human SK-MEL-2 cells; type: functional
[21] = test system: NCI-H322M; assay: Cytotoxicity against human NCI-H322M cells; type: functional
[22] = test system: BT-549; assay: Cytotoxicity against human BT549 cells; type: functional
[23] = test system: EKVX; assay: Cytotoxicity against human EKVX cells; type: functional
[24] = test system: SNB-19; assay: Cytotoxicity against human SNB19 cells; type: functional
[25] = test system: HCT-116; assay: Cytotoxicity against human HCT116 cells; type: functional
[26] = test system: SF-268; assay: Cytotoxicity against human SF268 cells; type: functional
[27] = test system: SF-295; assay: Cytotoxicity against human SF295 cells after 1 hr compound washout; type: functional, cell-based; conditions: SF-295, 1 h
[28] = test system: OVCAR-4; assay: Cytotoxicity against human OVCAR4 cells; type: functional
[29] = test system: U-251; assay: Cytotoxicity against human U251 cells; type: functional
[30] = test system: SK-OV-3; assay: Cytotoxicity against human SKOV3 cells; type: functional
[31] = test system: HCT-15; assay: Cytotoxicity against human HCT15 cells; type: functional
[32] = Cytotoxicity against human Hs 578T cells; type: functional
[33] = test system: SNB-75; assay: Cytotoxicity against human SNB75 cells; type: functional
[34] = test system: Malme-3M; assay: Cytotoxicity against human MALME-3M cells; type: functional
[35] = test system: OVCAR-5; assay: Cytotoxicity against human OVCAR5 cells; type: functional
[36] = test system: NCI-H460; assay: Cytotoxicity against human NCI-H460 cells; type: functional
[37] = test system: SW-620; assay: Cytotoxicity against human SW620 cells; type: functional
[38] = test system: SF-295; assay: Cytotoxicity against human SF295 cells after 48 hrs; type: functional, cell-based; conditions: SF-295, 48 h
[39] = test system: ACHN; assay: Cytotoxicity against human ACHN cells; type: functional
[40] = test system: PC-3; assay: Cytotoxicity against human PC3 cells; type: functional
[41] = test system: CAKI-1; assay: Cytotoxicity against human Caki1 cells; type: functional
[42] = test system: DU-145; assay: Cytotoxicity against human DU145 cells; type: functional
[43] = test system: HT-29; assay: Cytotoxicity against human HT-29 cells; type: functional
[44] = test system: SK-MEL-28; assay: Cytotoxicity against human SK-MEL-28 cells; type: functional
[45] = test system: UACC-257; assay: Cytotoxicity against human UACC257 cells; type: functional
[46] = test system: SK-MEL-5; assay: Cytotoxicity against human SK-MEL-5 cells; type: functional
[47] = test system: COLO 205; assay: Cytotoxicity against human COLO205 cells; type: functional
[48] = read-out: pLC50 (the source's name) (converted)

CC(C)=CCC/C(C)=C/Cc1c(O)cc(/C=C/c2cc(O)c3c(c2)C[C@@H]2C(C)(C)[C@H](O)[C@H](O)C[C@@]2(C)O3)cc1O [SCHWEINFURTHIN A]
GI50 [1]: 0.01 µM | LC50 [1]: 3.63 µM | TGI ([1]; read-out: pTGI (converted)): 0.209 µM | GI50 ([2]; 786-0): 0.01 µM | LC50 ([2]; 786-0): 19.1 µM | TGI ([2]; 786-0, read-out: pTGI (converted)): 3.02 µM | LC50 [3]: 17 µM | GI50 ([3]; read-out: GI50): 0.011 µM | TGI ([3]; read-out: TGI): 0.052 µM | GI50 ([3]; read-out: pGI50 (converted)): 0.011 µM | TGI ([3]; read-out: pTGI (converted)): 0.0525 µM | GI50 [4]: 0.01 µM | LC50 [4]: 75.9 µM | TGI ([4]; read-out: pTGI (converted)): 0.0209 µM | GI50 [5]: 0.0269 µM | CC50 [5, 48]: 85.1 µM | TGI ([5]; read-out: pTGI (converted)): 8.13 µM | GI50 [6]: 0.0151 µM | LC50 [6]: 57.5 µM | TGI ([6]; read-out: pTGI (converted)): 1.29 µM | GI50 [7]: 3.24 µM | CC50 [7, 48]: 97.7 µM | TGI ([7]; read-out: pTGI (converted)): 21.9 µM | GI50 [8]: 0.12 µM | LC50 [8]: 40.7 µM | TGI ([8]; read-out: pTGI (converted)): 15.1 µM | GI50 [9]: 2.57 µM | LC50 [9]: 26.9 µM | TGI ([9]; read-out: pTGI (converted)): 10 µM | GI50 [10]: 0.0158 µM | LC50 [10]: 38.9 µM | TGI ([10]; read-out: pTGI (converted)): 0.129 µM | IC50 [11]: 43 µg/mL (≈ 78.4 µM) | IC50 [12]: 20 µg/mL (≈ 36.4 µM) | GI50 [13]: 3.8 µM | CC50 [13, 48]: 41.7 µM | TGI ([13]; read-out: pTGI (converted)): 12.9 µM | GI50 [14]: 0.01 µM | LC50 [14]: 55 µM | TGI ([14]; read-out: pTGI (converted)): 2.09 µM | GI50 [15]: 0.0708 µM | LC50 [15]: 74.1 µM | TGI ([15]; read-out: pTGI (converted)): 18.2 µM | GI50 [16]: 3.8 µM | CC50 [16, 48]: 74.1 µM | TGI ([16]; read-out: pTGI (converted)): 33.1 µM | IC50 [17]: 47 µg/mL (≈ 85.7 µM) | GI50 [18]: 0.0158 µM | LC50 [18]: 2.69 µM | TGI ([18]; read-out: pTGI (converted)): 0.324 µM | GI50 [19]: 0.01 µM | LC50 [19]: 8.13 µM | TGI ([19]; read-out: pTGI (converted)): 1.7 µM | GI50 [20]: 1.7 µM | LC50 [20]: 42.7 µM | TGI ([20]; read-out: pTGI (converted)): 12.9 µM | GI50 [21]: 6.17 µM | LC50 [21]: 47.9 µM | TGI ([21]; read-out: pTGI (converted)): 20.9 µM | GI50 [22]: 12.9 µM | CC50 [22, 48]: 74.1 µM | TGI ([22]; read-out: pTGI (converted)): 32.4 µM | GI50 [23]: 0.158 µM | LC50 [23]: 43.7 µM | TGI ([23]; read-out: pTGI (converted)): 15.1 µM | GI50 [24]: 0.257 µM | LC50 [24]: 49 µM | TGI ([24]; read-out: pTGI (converted)): 20 µM | GI50 [25]: 0.0525 µM | LC50 [25]: 40.7 µM | TGI ([25]; read-out: pTGI (converted)): 14.1 µM | GI50 [26]: 2.4 µM | LC50 [26]: 74.1 µM | TGI ([26]; read-out: pTGI (converted)): 20.9 µM | IC50 [27]: 0.06 µg/mL (≈ 0.109 µM) | GI50 [28]: 4.27 µM | LC50 [28]: 81.3 µM | TGI ([28]; read-out: pTGI (converted)): 24 µM | GI50 [29]: 0.0251 µM | LC50 [29]: 49 µM | TGI ([29]; read-out: pTGI (converted)): 22.9 µM | GI50 [30]: 2.69 µM | LC50 [30]: 39.8 µM | TGI ([30]; read-out: pTGI (converted)): 15.8 µM | GI50 [31]: 1.82 µM | LC50 [31]: 25.7 µM | TGI ([31]; read-out: pTGI (converted)): 6.03 µM | GI50 [32]: 0.01 µM | CC50 [32, 48]: 87.1 µM | TGI ([32]; read-out: pTGI (converted)): 0.759 µM | GI50 [33]: 0.0151 µM | LC50 [33]: 50.1 µM | TGI ([33]; read-out: pTGI (converted)): 0.38 µM | GI50 [34]: 4.27 µM | LC50 [34]: 53.7 µM | TGI ([34]; read-out: pTGI (converted)): 20 µM | GI50 [35]: 6.46 µM | LC50 (concentration killing 50% of cells) [35]: 45.7 µM | TGI ([35]; read-out: pTGI (converted)): 20 µM | GI50 [36]: 0.0129 µM | LC50 [36]: 38.9 µM | TGI ([36]; read-out: pTGI (converted)): 12 µM | GI50 [37]: 0.257 µM | LC50 [37]: 44.7 µM | TGI ([37]; read-out: pTGI (converted)): 18.2 µM | IC50 [38]: < 0.01 ng/mL | GI50 [39]: 2.09 µM | LC50 [39]: 39.8 µM | TGI ([39]; read-out: pTGI (converted)): 15.8 µM | GI50 [40]: 0.17 µM | CC50 [40, 48]: 36.3 µM | TGI ([40]; read-out: pTGI (converted)): 12.9 µM | GI50 [41]: 0.129 µM | LC50 [41]: 56.2 µM | TGI ([41]; read-out: pTGI (converted)): 19.1 µM | GI50 [42]: 1.2 µM | CC50 [42, 48]: 53.7 µM | TGI ([42]; read-out: pTGI (converted)): 15.1 µM | GI50 [43]: 0.309 µM | LC50 [43]: 5.5 µM | TGI ([43]; read-out: pTGI (converted)): 2.4 µM | GI50 [44]: 4.57 µM | LC50 [44]: 60.3 µM | TGI ([44]; read-out: pTGI (converted)): 24 µM | GI50 [45]: 4.27 µM | LC50 [45]: 43.7 µM | TGI ([45]; read-out: pTGI (converted)): 18.2 µM | GI50 [46]: 0.0912 µM | LC50 [46]: 12 µM | TGI ([46]; read-out: pTGI (converted)): 2.82 µM | GI50 [47]: 1.1 µM | LC50 [47]: 7.08 µM | TGI ([47]; read-out: pTGI (converted)): 2.82 µM
